Test results taken from patent publication US11077100B2, “Tetrahydroquinoline derivatives as P2X7 receptor antagonists” (RaQualia Pharma Inc., priority 2017, dated 2021).

Tests used:
human P2X7 = human P2X7 (Homo sapiens (Human), UniProt Q99572); assay: Human P2X7 functional assay (Ca2+ influx, Fluo-4, FDSS); type: cell-based; details: antagonistic activity with respect to the human P2X7 receptor; BzATP final concentration 80 microM
Summary of the method: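 HEK293 cells stably expressing C-terminally FLAG-tagged human P2X7, loaded with Fluo-4. Compounds were preincubated for 10 min at room temperature, then 80 μM BzATP (final) was added and Ca2+ fluorescence read at 540 nm (480 nm excitation) by FDSS. IC50 values come from 7-point curves, duplicate wells.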

rat P2X7 = rat P2X7 (Rattus norvegicus (Rat), UniProt Q64663); assay: Rat P2X7 functional assay (Ca2+ influx, Fluo-4, FDSS); type: cell-based; details: HEK293 cells stably expressing rat P2X7; BzATP final 10 microM; 7-point dose-response; read-out: Antagonistic activities with respect to the rat P2X7 receptor (IC50)
rat P2X7, sequence (Q64663 whole entry): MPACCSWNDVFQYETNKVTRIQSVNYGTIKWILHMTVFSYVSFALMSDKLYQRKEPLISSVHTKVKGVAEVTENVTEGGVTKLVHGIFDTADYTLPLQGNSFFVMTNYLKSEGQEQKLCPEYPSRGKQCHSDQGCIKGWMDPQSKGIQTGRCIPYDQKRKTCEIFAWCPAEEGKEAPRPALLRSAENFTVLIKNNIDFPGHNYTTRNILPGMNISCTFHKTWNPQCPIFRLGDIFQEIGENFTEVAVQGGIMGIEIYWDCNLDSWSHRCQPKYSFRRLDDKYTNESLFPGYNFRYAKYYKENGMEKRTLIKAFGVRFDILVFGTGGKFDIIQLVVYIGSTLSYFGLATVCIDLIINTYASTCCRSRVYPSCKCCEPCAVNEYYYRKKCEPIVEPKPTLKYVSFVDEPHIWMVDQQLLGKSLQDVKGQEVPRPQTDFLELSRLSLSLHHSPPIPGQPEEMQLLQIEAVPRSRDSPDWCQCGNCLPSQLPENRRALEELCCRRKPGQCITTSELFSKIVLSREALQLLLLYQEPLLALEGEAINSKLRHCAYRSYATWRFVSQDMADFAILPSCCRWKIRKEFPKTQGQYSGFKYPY
Summary of the method: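 HEK293 cells stably expressing rat P2X7 (5,000/well, plated 24 h before) loaded with Fluo-4; compounds preincubated 10 min at room temperature, then Ca2+ rise after 10 microM BzATP (final) read on FDSS (480/540 nm). IC50 from 7-point curves, duplicate wells.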

human P2X7, sequence (Q99572 whole entry): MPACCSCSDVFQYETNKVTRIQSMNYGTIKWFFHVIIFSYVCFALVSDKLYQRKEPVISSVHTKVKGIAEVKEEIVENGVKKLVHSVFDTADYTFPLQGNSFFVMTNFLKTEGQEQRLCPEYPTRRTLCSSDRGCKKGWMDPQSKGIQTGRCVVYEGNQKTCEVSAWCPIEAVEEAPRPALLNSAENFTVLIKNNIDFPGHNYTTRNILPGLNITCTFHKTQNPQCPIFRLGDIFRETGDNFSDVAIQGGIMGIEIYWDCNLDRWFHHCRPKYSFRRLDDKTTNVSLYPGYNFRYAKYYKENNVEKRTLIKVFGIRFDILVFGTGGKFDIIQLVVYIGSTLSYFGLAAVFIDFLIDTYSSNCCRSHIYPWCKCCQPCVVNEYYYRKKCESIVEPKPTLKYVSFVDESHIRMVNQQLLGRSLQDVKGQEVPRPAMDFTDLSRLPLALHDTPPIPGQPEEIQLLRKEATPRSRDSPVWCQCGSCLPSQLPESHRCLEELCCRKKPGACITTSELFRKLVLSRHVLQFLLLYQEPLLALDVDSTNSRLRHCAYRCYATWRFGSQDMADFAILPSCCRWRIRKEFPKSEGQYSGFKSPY

| SMILES | IC50 (human P2X7) [µM] | IC50 (rat P2X7) [µM] |
| --- | --- | --- |
| O=C1COC[C@@]2(CC[C@@](F)(C(=O)NCc3ccc(Cl)cc3Cl)c3cccnc32)N1 (relative stereo) [Example 62, (3S*,5′S*)-N-(2,4-dichlorobenzyl)-5′-fluoro-5-oxo-6′,7′-dihydro-5′H-spiro[morpholine-3,8′-quinoline]-5′-carboxamide] | 0.101 to 0.3 | < 1 |
| N#CC[C@@]1(O)CC[C@@](F)(C(=O)NCc2ccc(F)cc2Cl)c2cccnc21 [Example 282, (5S,8S)-N-(2-chloro-4-fluorobenzyl)-8-(cyanomethyl)-5-fluoro-8-hydroxy-5,6,7,8-tetrahydroquinoline-5-carboxamide] | < 0.05 | < 1 |
| O=C(NCc1c(Cl)cc(Cl)cc1C(F)F)[C@]1(F)CC[C@H](O)c2ncccc21 [Example 149, (5S,8S)-N-(2,4-dichloro-6-(difluoromethyl)benzyl)-5-fluoro-8-hydroxy-5,6,7,8-tetrahydroquinoline-5-carboxamide] | < 0.05 | < 1 |
| Cc1cc(Cl)cc(Cl)c1CNC(=O)C1CC(=O)c2ncccc21 (stereo not drawn) [Example 16, N-(2,4-dichloro-6-methylbenzyl)-7-oxo-6,7-dihydro-5H-cyclopenta[b]pyridine-5-carboxamide] | < 0.05 | < 1 |
| O=C(NCc1ccc(F)cc1Cl)[C@]1(F)CC[C@@](O)(CO)c2ncccc21 [Example 306, (5S,8S)-N-(2-chloro-4-fluorobenzyl)-5-fluoro-8-hydroxy-8-(hydroxymethyl)-5,6,7,8-tetrahydroquinoline-5-carboxamide] | < 0.05 | < 1 |
| C[C@@H](NC(=O)[C@]1(F)CC[C@@](O)(CO)c2ncccc21)c1ccc(F)cc1Cl [Example 327, (5S,8S)-N-((R)-1-(2-chloro-4-fluorophenyl)ethyl)-5-fluoro-8-hydroxy-8-(hydroxymethyl)-5,6,7,8-tetrahydroquinoline-5-carboxamide] | < 0.05 | < 1 |
| COC[C@]1(O)CC[C@@](F)(C(=O)NCc2ccc(Cl)cc2Cl)c2cccnc21 (relative stereo) [Example 41, (5S*,8S*)-N-(2,4-dichlorobenzyl)-5-fluoro-8-hydroxy-8-(methoxymethyl)-5,6,7,8-tetrahydro-quinoline-5-carboxamide] | < 0.05 | < 1 |
| Cc1cc(Cl)cc(Cl)c1CNC(=O)C1(F)CCC(O)c2ncccc21 (stereo not drawn) [Example 18, N-(2,4-dichloro-6-methyl-benzyl)-5-fluoro-8-hydroxy-5,6,7,8-tetrahydroquinoline-5-carboxamide] | < 0.05 | < 1 |
| O=C1CC[C@@](F)(C(=O)NCc2ccc(F)c(F)c2F)c2cccnc21 [Example 254, (S)-5-fluoro-8-oxo-N-(2,3,4-trifluorobenzyl)-5,6,7,8-tetrahydro-quinoline-5-carboxamide] | 0.301 to 1 | < 1 |
| CN1CCO[C@]2(CC[C@@](F)(C(=O)NCc3ccc(Cl)cc3Cl)c3cccnc32)C1 [Example 290, (2R,5′S)—N-(2,4-dichlorobenzyl)-5′-fluoro-4-methyl-6′,7′-dihydro-5′H-spiro[morpholine-2,8′-quinoline]-5′-carboxamide] | < 0.05 | < 1 |
| O=C(N[C@@H]1CCCc2ccccc21)[C@]1(F)CC[C@H](O)c2ncccc21 [Example 189, (5S,8S)-5-fluoro-8-hydroxy-N-((R)-1,2,3,4-tetrahydronaphthalen-1-yl)-5,6,7,8-tetrahydroquinoline 5-carboxamide] | < 0.05 | < 1 |
| O=C(NCc1ccc(Cl)cc1Cl)[C@]1(F)CC[C@@](O)(CF)c2ncccc21 [Example 285, (5S,8S)-N-(2,4-dichlorobenzyl)-5-fluoro-8-(fluoromethyl)-8-hydroxy-5,6,7,8-tetrahydroquinoline-5-carboxamide] | < 0.05 | < 1 |
| O=C1NC[C@]2(CC[C@@](F)(C(=O)NCc3ccc(Cl)cc3Cl)c3cccnc32)O1 [Example 291, (5S,5′S)-N-(2,4-dichlorobenzyl)-5′-fluoro-2-oxo-6′,7′-dihydro-5′H-spiro [oxazolidine-5,8′-quinoline]-5′-carboxamide] | 0.101 to 0.3 | < 1 |
| O=C(NCc1c(F)cc(F)cc1Cl)[C@]1(F)CC[C@@](O)(CO)c2ncccc21 [Example 321, (5S,8S)-N-(2-chloro-4,6-difluorobenzyl)-5-fluoro-8-hydroxy-8-(hydroxymethyl)-5,6,7,8-tetrahydroquinoline-5-carboxamide] | < 0.05 | < 1 |
| C[C@]1(O)CC[C@@](F)(C(=O)NCc2ccc(F)cc2F)c2cccnc21 [Example 263, (5S,8S)-N-(2,4-difluorobenzyl)-5-fluoro-8-hydroxy-8-methyl-5,6,7,8-tetrahydroquinoline-5-carboxamide] | < 0.05 | < 1 |
| O=C(NCc1ccc(F)c(F)c1F)[C@]1(F)CC[C@H](OCCO)c2ncccc21 [Example 345, (5S,8S)-5-fluoro-8-(2-hydroxyethoxy)-N-(2.3.4-trifluorobenzyl)-5,6,7,8-tetrahydroquinoline-5-carboxamide] | < 0.05 | < 1 |
| O=C(NCc1ccc(Cl)cc1Cl)[C@@]1(F)CC[C@](O)(CN2CC(O)C2)c2ncccc21 [Example 279, (5R,8S)-N-(2,4-dichlorobenzyl)-5-fluoro-8-hydroxy-8-((3-hydroxyazetidin-1-yl)methyl)-5,6,7,8-tetrahydroquinoline-5-carboxamide] | < 0.05 | < 1 |
| O=C(NCc1ccc(Br)cc1Cl)[C@@]1(F)CC[C@@H](O)c2ncccc21 [Example 153, (5R,8R)-N-(4-bromo-2-chlorobenzyl)-5-fluoro-8-hydroxy-5,6,7,8-tetrahydroquinoline-5-carboxamide] | < 0.05 | < 1 |
| O=C(NCc1ccc(Cl)cc1F)[C@]1(F)CC[C@@](O)(CO)c2ncccc21 [Example 314, (5S,8S)-N-(4-chloro-2-fluorobenzyl)-5-fluoro-8-hydroxy-8-(hydroxymethyl)-5,6,7,8-tetrahydroquinoline-5-carboxamide] | 0.101 to 0.3 | < 1 |
| O=C(NCc1ccc(F)cc1Cl)[C@@]1(F)CC[C@@H](O)c2ncccc21 [Example 134, (5R,8R)-N-(2-chloro-4-fluorobenzyl)-5-fluoro-8-hydroxy-5,6,7,8-tetrahydroquinoline-5-carboxamide] | 0.101 to 0.3 | < 1 |
| C[S+]([O-])C[C@]1(O)CC[C@@](F)(C(=O)NCc2ccc(F)cc2Cl)c2cccnc21 (stereo partly drawn) [Example 296, (5S,8S)-N-(2-chloro-4-fluorobenzyl)-5-fluoro-hydroxy-8-((methylsulfinyl)methyl)-5,6,7,8-tetrahydroquinoline-5-carboxamide] | 0.05 to 0.1 | < 1 |
| O=C1CC[C@@](F)(C(=O)NCc2cccc(F)c2Cl)c2cccnc21 [Example 250, (S)-N-(2-chloro-3-fluorobenzyl)-5-fluoro-8-oxo-5,6,7,8-tetrahydro-quinoline-5-carboxamide] | 0.101 to 0.3 | < 1 |
| O=C(NCc1ccc(Cl)cc1Cl)[C@H]1CC[C@@H](O)c2ncccc21 [Example 88, (5S,8R)-N-(2,4-dichloro-benzyl)-8-hydroxy-5,6,7,8-tetrahydroquinoline-5-carboxamide] | < 0.05 | < 1 |
| O=C(NCc1cccc(Cl)c1Cl)[C@@]1(F)CC[C@@H](O)c2ncccc21 [Example 158, (5R,8R)-N-(2,3-dichlorobenzyl)-5-fluoro-8-hydroxy-5,6,7,8-tetrahydroquinoline-5-carboxamide] | < 0.05 | < 1 |
| COCC1(O)CCC(F)(C(=O)NCc2cccc(C(F)(F)F)c2Cl)c2cccnc21 (stereo not drawn) [Example 40, N-(2-chloro-3-(tri-fluoromethyl)benzyl)-5-fluoro-8-hydroxy-8-(methoxy-methyl)-5,6,7,8-tetra-hydroquinoline-5-carboxamide] | < 0.05 | < 1 |
| Cc1cc(Cl)cc(Cl)c1CNC(=O)C1CCC(=O)c2ncccc21 (stereo not drawn) [Example 1, N-(2,4-dichloro-6-methyl-benzyl)-8-oxo-5,6,7,8-tetrahydroquinoline-5-carboxamide] | < 0.05 | < 1 |
| COC1CN(C[C@]2(O)CC[C@@](F)(C(=O)NCc3ccc(F)cc3Cl)c3cccnc32)C1 (relative stereo) [Example 53, (5S*,8R*)-N-(2-chloro-4-fluorobenzyl)-5-fluoro-8-hydroxy-8-((3-methoxy-azetidin-1-yl)methyl)-5,6,7,8-tetrahydro-quinoline-5-carboxamide] | < 0.05 | < 1 |
| Cc1cc(Cl)cc(Cl)c1CNC(=O)C1CCC(O)(CN)c2ncccc21 (stereo not drawn) [Example 43, 8-(aminomethyl)-N-(2,4-dichloro-6-meth-ylbenzyl)-8-hydroxy-5,6,7,8-tetrahydroquinoline-5-carboxamide] | < 0.05 | < 1 |
| O=C(NCc1ccc(F)c(F)c1Cl)[C@]1(F)CC[C@@](O)(CO)c2ncccc21 [Example 312, (5S,8S)-N-(2-chloro-3,4-difluorobenzyl)-5-fluoro-8-hydroxy-8-(hydroxymethyl)-5,6,7,8-tetrahydroquinoline-5-carboxamide] | < 0.05 | < 1 |
| CC1(O)CN(C[C@]2(O)CC[C@@](F)(C(=O)NCc3ccc(F)cc3Cl)c3cccnc32)C1 (relative stereo) [Example 54, (5S*,8R*)-N-(2-chloro-4-fluorobenzyl)-5-fluoro-8-hydroxy-8-((3-hydroxy-3-methylazetidin-1-yl)methyl)-5,6,7,8-tetra-hydroquinoline-5-carboxamide] | < 0.05 | < 1 |
